Values after ≈ are worked out from the molar mass of the structure shown. Read-outs that look alike come from different tables or passages of the source.
Tests used:
Assay type in all cases: cell-based
P. falciparum W-2 clone = assay: In vitro antimalarial activity, P. falciparum W-2 clone; details: for IC50: Plasmodium falciparum
Description: (§1) The analogs have been segregated arbitrarily here into those compounds in which the tetracyclic skeleton is intact (Table 2) and various ring-cleaved analogs (Table 3). The activities of the conventional malaria therapeutics chloroquine, mefloquine, and pyrimethamine is included for comparison.

P. falciparum D-6 clone = assay: In vitro antimalarial activity, P. falciparum D-6 clone; details: for IC50: Plasmodium falciparum
Description: as §1

P. falciparum = assay: In vitro antimalarial activity / SAR data, clone not stated; details: 24 versus 52
Description: as §1

[1] = Table 3, tricyclic analogs, W-2 clone
[2] = Table 3, tricyclic analogs, D-6 clone
[3] = Table 3, tricyclic analogs, D-6 clone, read-out: In vitro IC50 D-6 clone
[4] = Table 2, W-2 clone, drug-resistant strains of P. falciparum, read-out: IC50 W-2 clone
[5] = Table 2, W-2 clone, drawing 57 (artemisinin) = 100
[6] = Table 2, D-6 clone, drug-resistant strains of P. falciparum, read-out: IC50 D-6 clone
[7] = Table 2, D-6 clone, drawing 57 (artemisinin) = 100

Row | Compound | IC50 (P. falciparum W-2 clone; [4]) [ng/mL] | Relative potency (W-2 clone) (P. falciparum W-2 clone; [5]) | IC50 (P. falciparum D-6 clone; [6]) [ng/mL] | Relative potency (D-6 clone) (P. falciparum D-6 clone; [7]) | further results
1 | (-)-4ab,7a,7aa,10β-Hexahydro-3,3,7β,10a-tetramethyl-4aH,6H-trioxino[6.5-j][2]-benzopyran-6-one [compound 4591] | – | – | – | – | In vitro IC50 W-2 clone (P. falciparum W-2 clone; [1]): 9.71 ng/mL; Relative potency (W-2 clone) (P. falciparum W-2 clone; [1]): 9; In vitro IC50 D-6 clone (P. falciparum D-6 clone; [2]): 9.65 ng/mL; Relative potency (D-6 clone) (P. falciparum D-6 clone; [2]): 8
2 | CCC1(CC)OO[C@]23CCCC[C@H]2[C@@H](C)C(=O)O[C@@H]3O1 (relative stereo) [compound 4583] | – | – | – | – | IC50 (P. falciparum W-2 clone; Table 3, tricyclic analogs, W-2 clone, read-out: In vitro IC50 W-2 clone): 74.2 ng/mL (≈ 261 nM); Relative potency (W-2 clone) (P. falciparum W-2 clone; [1]): 3; IC50 (P. falciparum D-6 clone; [3]): 29.7 ng/mL (≈ 105 nM); Relative potency (D-6 clone) (P. falciparum D-6 clone; [2]): 15
3 | CCC1(CC)OO[C@]23CCCC[C@H]2[C@@H](C)C(=O)O[C@@H]3O1 (relative stereo) [compound 52] | – | – | – | – | activity change by additional alkyl groups in the vicinity of the peroxy group (P. falciparum): reduced activity substantially
4 | CCCC(=O)OCC(CC)(CC)OOC(C)(C)C [compound 4597, 2-t-Butylperoxy-2-ethylbutyl Butyrate] | – | – | – | – | In vitro IC50 W-2 clone (P. falciparum W-2 clone; [1]): Inactive; In vitro IC50 D-6 clone (P. falciparum D-6 clone; [2]): Inactive
5 | CC(C)[C@H]1C(=O)O[C@@H]2O[C@@]3(C)CC[C@H]4[C@H](C)CC[C@@H]1[C@@]24OO3 [compound 2820] | 0.58 (≈ 1.87 nM) | 84 | 0.27 (≈ 0.87 nM) | 203 | –
6 | C[C@@H]1CCC[C@@]23CO[C@@](C)(CC[C@@H]12)OO3 [compound 2823] | – | – | – | – | IC50 (P. falciparum D-6 clone; [3]): 0.8 ng/mL (≈ 3.77 nM); Relative potency (D-6 clone) (P. falciparum D-6 clone; [2]): 37
7 | O=C1C[C@@H]2CCC[C@@H]3C[C@H]4OO[C@]32[C@H](O1)O4 (relative stereo) [compound 4589, Octahydro-3,11-epoxy-11H-pyrano[4.3-j]-1,2-benzodioxan-9(3H) -one] | 88.7 (≈ 392 nM) | 2 | 129 (≈ 572 nM) | 2 | –
8 | CCc1nc(N)nc(N)c1-c1ccc(Cl)cc1 [pyrimethamine, reference compound] | 121 (≈ 486 nM) | 2 | 0.35 (≈ 1.41 nM) | 1269 | –
9 | C[C@@H]1CC[C@H]2[C@@H](CCCc3ccccc3)C(=O)O[C@@H]3O[C@@]4(C)CC[C@@H]1[C@]32OO4 [compound 2821] | 0.11 (≈ 0.285 nM) | 445 | 0.09 (≈ 0.233 nM) | 611 | –
10 | CCCCCC[C@H]1C(=O)O[C@@H]2O[C@@]3(C)CC[C@H]4[C@H](C)CC[C@@H]1[C@@]24OO3 [compound 2817] | 0.02 (≈ 0.0567 nM) | 550 | 0.03 (≈ 0.0851 nM) | 467 | –
11 | CCC(=O)OCC(CC)(CC)OOC(C)(C)C [compound 4596, 2-t-Butylperoxy-2-ethylbutyl proprionate] | – | – | – | – | In vitro IC50 W-2 clone (P. falciparum W-2 clone; [1]): Inactive; In vitro IC50 D-6 clone (P. falciparum D-6 clone; [2]): Inactive
12 | C[C@@H]1CC[C@H]2CC(=O)N(CC(=O)O)[C@@H]3O[C@@]4(C)CC[C@@H]1[C@@]23OO4 [compound 2804] | – | – | 122 (≈ 376 nM) | 5.5 | –
13 | C[C@H]1[C@@H](OOC(C)(C)C)O[C@@H]2O[C@@]3(C)CC[C@H]4[C@H](C)CC[C@@H]1[C@@]24OO3 [compound 4588] | 0.41 (≈ 1.15 nM) | 656 | 0.53 (≈ 1.49 nM) | 1054 | –
14 | C[C@@H]1CC[C@H]2CC(=O)O[C@@H]3O[C@@]4(C)CC[C@@H]1[C@@]23OO4 [compound 4584] | 0.31 (≈ 1.16 nM) | 650 | 2.32 (≈ 8.65 nM) | 180 | –
15 | CCN(CC)CCCC(C)Nc1ccnc2cc(Cl)ccc12 (stereo not drawn) [Chloroquine, reference compound] | – | 7 | – | 83 | IC50 (P. falciparum W-2 clone; read-out: IC50 W-2 clone): 31.7 ng/mL (≈ 99.1 nM); IC50 (P. falciparum D-6 clone; read-out: IC50 D-6 clone): 5.33 ng/mL (≈ 16.7 nM)
16 | (+)-Hexahydro-3,3,7,10α,11β-pentamethyl-4aH,6H-1,2,4-trioxino-[ 6.5-j][2] benzopyran-6-one [compound 4594] | – | – | – | – | In vitro IC50 W-2 clone (P. falciparum W-2 clone; [1]): 2.06 ng/mL; Relative potency (W-2 clone) (P. falciparum W-2 clone; [1]): 24; In vitro IC50 D-6 clone (P. falciparum D-6 clone; [2]): 5.35 ng/mL; Relative potency (D-6 clone) (P. falciparum D-6 clone; [2]): 23
17 | CC1C(=O)OC(O[Si](C)(C)C(C)(C)C)C2(OO)CCCCC12 (stereo not drawn) [compound 4581] | – | – | – | – | IC50 (P. falciparum W-2 clone; read-out: In vitro IC50 W-2 clone): 2890 ng/mL (≈ 8750 nM); Relative potency (W-2 clone) (P. falciparum W-2 clone; [1]): 0; IC50 (P. falciparum D-6 clone; read-out: In vitro IC50 D-6 clone): 3020 ng/mL (≈ 9130 nM); Relative potency (D-6 clone) (P. falciparum D-6 clone; [2]): 0

— patent US5216175A, “Antimalarial analogs of artemisinin” (SRI International, priority 1990, dated 1993)
